Measurements published in patent publication US5556858A, “Cis-2-[(4-heteroaryl-1-piperazinyl)alkyl] hexahydro-1H-isoindole-1,3 (2H)-diones and related compounds and their therapeutic utility” (Hoechst-Roussel Pharmaceuticals, Inc., priority 1995, dated 1996).
Counter-ions that a name gives are not always drawn.

The molecules below were run on apomorphine climbing (assay: climbing mice assay (antipsychotic activity)). Settings: Mus musculus; ip; apomorphine 1.5 mg/kg subcutaneously; climbing score vs control.
Assay type: in vivo, mice (CK-1 male)
Experimental: Subject […] male mice (23-27 grams) are group-housed under standard laboratory conditions. The mice are individually placed in wire mesh stick cages (4"×10") and are allowed one hour for adaption and exploration of the new environment.
For evaluation of climbing, 3 readings are taken at 10, 20, and 30 minutes-after apomorphine administration according to the following scale: […]
Mice consistently climbing before the injection of apomorphine are discarded.
With full-developed apomorphine climbing, the animals are hanging on to the cage walls, rather motionless, over long periods of time. By contrast, climbs due to mere motor stimulation usually only last a few seconds.
The climbing scores are individually totaled (maximal score: 6 per mouse over 3 readings) and the total score of the control group (vehicle intraperitoneally-apomorphine subcutaneously) is set to 100%.
`COc1cc(C(C)=O)ccc1OCCCN1CCC(c2noc3ccccc23)CC1` [1-[4-[3-[4-(1,2-benzisoxazol-3-yl)-1-piperidinyl]propoxy]-3-methoxyphenyl]ethanone] gave an ED50 of 0.67 mg/kg.
`COc1cc(C(C)=O)ccc1OCCCN1CCN(c2n[nH]c3ccccc23)CC1` [1-[4-[3-[4-(1H-indazol-3-yl)-1-piperazinyl]propoxy]-3-methoxyphenyl]ethanone] gave an ED50 of 0.98 mg/kg.
Work on `COc1cc(C(C)=O)ccc1OCCCN1CCC(c2noc3cc(F)ccc23)CC1` [1-[4-[3-[4-(6-fluoro-1,2-benzisoxazol-3-yl)-1-piperidinyl]propoxy]-3-methoxyphenyl]ethanone] yielded an ED50 of 0.095 mg/kg.
Molecule `Fc1ccc2c(N3CCN(CCN4Cc5ccccc5C4)CC3)n[nH]c2c1.O=C(O)/C=C\C(=O)O.O=C(O)/C=C\C(=O)O` [4-(6-Fluoro-1H-indazol-3-yl)-1-[2-(2,3-dihydro-1H-isoindol-2-yl)-ethyl]piperazine dimaleate] has an ED50 of 0.25 mg/kg.
For `Fc1ccc2c(c1)CN(CCN1CCN(c3n[nH]c4cc(F)ccc34)CC1)C2.O=C(O)/C=C\C(=O)O.O=C(O)/C=C\C(=O)O` [4-(6-Fluoro-1H-indazol-3-yl)-1-[2-(5-fluoro-2,3-dihydro-1H-isoindol-2-yl)-ethyl]piperazine dimaleate], the ED50 was 0.16 mg/kg.
For `Fc1ccc2c(c1)CN(CCN1CCC(c3n[nH]c4cc(F)ccc34)CC1)C2.O=C(O)/C=C\C(=O)O.O=C(O)/C=C\C(=O)O` [4-(6-Fluoro-1H-indazol-3-yl)-1-[2-(5-fluoro-2,3-dihydro-1H-isoindol-2-yl)ethyl]piperidine dimaleate], the ED50 was 0.27 mg/kg.
With `Fc1ccc2c(N3CCN(CCCN4Cc5ccccc5C4)CC3)n[nH]c2c1` [4-(6-Fluoro-1H-indazol-3-yl)-1-[3-(2.3-dihydro-1H-isoindol-2-yl)propyl]-piperazine dimaleate] the ED50 was 0.46 mg/kg.
In the case of `Cc1ccc2c(c1)CN(CCN1CCN(c3n[nH]c4cc(F)ccc34)CC1)C2` [4-(Fluoro-1H-indazol-3-yl)-1-[2-(2,3-dihydro-5-methyl-1H-isoindol-2-yl)-ethyl]piperazine difumarate], the ED50 is reported as 0.17 mg/kg.
For `CCCCCCCCCC(=O)OCCCCN1CCC(c2noc3cc(F)ccc23)CC1.O=C(O)/C=C/C(=O)O` [4-[4-(6-Fluoro-1,2-benzisoxazol-3-yl)-1-piperidinyl]butyl decanoate fumarate], the ED50 was 3.31 mg/kg.
In the case of `OCCCN1CCC(c2noc3cc(F)ccc23)CC1` [6-Fluoro-3-[1-(3-hydroxypropyl)-4-piperidinyl]-1,2-benzisoxazole], the ED50 is reported as 4.1 mg/kg.
`Fc1ccc2c(C3CCN(CCCOc4cccc5cnccc45)CC3)noc2c1` [6-Fluoro-3-[1-[3-[(isoquinol-5-yl)oxylpropyl]-4-piperidinyl]-1,2-benzisoxazole sesquifumarate] showed an ED50 of 0.172 mg/kg.
`COc1cc(C(C)=O)ccc1OC/C=C\CN1CCC(c2noc3cc(F)ccc23)CC1` [(Z)-1-[4-[[4-[4-(6-fluoro-1,2-benzisoxazol-3-yl)-1-piperidinyl]-2-butenyl]oxy]-3-methoxy-phenyl]ethanone] gave an ED50 of 0.61 mg/kg.
Work on `Fc1ccc2c(C3CCN(CCN4CCc5ccccc5C4)CC3)noc2c1` [N-12-[4-(6-Fluoro-1,2-benzisoxazol-3-yl)-1-piperidinyl]ethyl-1,2,3,4-tetrahydroisoquinoline difumarate] yielded an ED50 of 0.23 mg/kg.
Molecule `Cl.O=C1c2ccccc2C(=O)N1CCN1CCC(c2nsc3cc(F)ccc23)CC1` [N-[2-[4-(6-Fluoro-1,2-benzisothiazol-3-yl)-1-piperidinyl]ethyl]phthalimide hydrochloride] has an ED50 of 0.38 mg/kg.
Work on `Fc1ccc2c(C3CCN(CCN4CCCc5ccccc54)CC3)noc2c1.O=C(O)/C=C/C(=O)O` [N-[2-[4-(6-Fluoro-1,2-benzisoxazol-3-yl)-1-piperidinyl]ethyl]-1,2,3,4-tetrahydroquinoline fumarate] yielded an ED50 of 1.19 mg/kg.
`O=C1c2c(F)ccc(F)c2C(=O)N1CCN1CCC(c2noc3cc(F)ccc23)CC1` [N-[2-[4-(6-Fluoro-1,2-benzisoxazol-3-yl)-1-piperidinyl]ethyl]-3,6-difluorophthalimide] gave an ED50 of 2.9 mg/kg.
Molecule `Nc1ccc2c(c1)C(=O)N(CCN1CCC(c3noc4cc(F)ccc34)CC1)C2=O.O=C(O)/C=C/C(=O)O` [N-[2-[4-(6-Fluoro-1,2-benzisoxazol-3-yl)-1-piperidinyl]ethyl]-4-aminophthalimide fumarate] has an ED50 of 0.097 mg/kg.
Work on `Cl.O=C1c2ccc(O)cc2C(=O)N1CCN1CCC(c2noc3cc(F)ccc23)CC1` [N-[2-[4-(6-Fluoro-1,2-benzisoxazol-3-yl)-1-piperidinyl]ethyl]-4-hydroxyphthalimide hydrochloride] yielded an ED50 of 1.6 mg/kg.
Molecule `Cl.O=C1c2ccccc2C(=O)N1CCN1CCC(c2noc3cc(F)ccc23)CC1` [N-[2-[4-(6-Fluoro-1,2-benzisoxazol-3-yl)-1-piperidinyl]ethyl]phthalimide h ydrochloride] has an ED50 of 0.48 mg/kg.
Molecule `O=C1c2ccccc2C(=O)N1CCN1CCC(c2noc3cc(F)ccc23)CC1` [N-[2-[4-(6-Fluoro-1,2-benzisoxazol-3-yl)-1-piperidinyl]ethyl]phthalimide] has an ED50 of 5 mg/kg.
`Cc1ccc2c(c1)C(=O)N(CCN1CCN(c3n[nH]c4cc(F)ccc34)CC1)C2=O` [N-[2-[4-(6-Fluoro-1H-indazol-3-yl)-1-piperazinyl]ethyl]-4-methylphthalimidedihydrochloride] gave an ED50 of 0.37 mg/kg.
`Fc1ccc2c(C3CCN(CCN4CCc5ccccc5C4)CC3)n[nH]c2c1.O=C(O)/C=C\C(=O)O.O=C(O)/C=C\C(=O)O` [N-[2-[4-(6-Fluoro-1H-indazol-3-yl)-1-piperidinyl]ethyl]-1,2,3,4-tetrahydroisoquinoline dimaleate] showed an ED50 of 0.44 mg/kg.
`Cl.O=C1c2ccccc2C(=O)N1CCN1CCC(c2n[nH]c3cc(F)ccc23)CC1` [N-[2-[4-(6-Fluoro-1H-indazol-3-yl)-1-piperidinyl]ethyl]phthalimide hydrochloride] showed an ED50 of 0.8 mg/kg.
`O=C1c2ccccc2C(=O)N1CCN1CCN(c2n[nH]c3cc(F)ccc23)CC1` [N-[2-[4-(6-Fluoro-1H-indazol-3.-yl)-1-piperazinyl]ethyl]phthalimide] was tested, and the ED50 was 1.2 mg/kg.
`COc1cccc2c1C(=O)N(CCN1CCC(c3noc4cc(F)ccc34)CC1)C2=O` [N-[2-[4-(6-fluoro-1,2-benzisoxazol-3-yl)-1-piperidinyl]ethyl]-3-methoxyphthalimide] was tested, and the ED50 was 0.16 mg/kg.

Same assay, conditions: ip; apomorphine 1.5 mg/kg subcutaneously; climbing score vs control
For `CC(CCN1C(=O)c2ccccc2C1=O)N1CCC(c2noc3cc(F)ccc23)CC1.Cl` (stereo not shown) [N,[3-[4-(6-Fluoro-1,2-benzisoxazol-3-yl)-1-piperidinyl]butyl]phthalimide hydrochloride], the “CLIMBING MOUSE ASSAY ED50” value was 0.7 mg/kg.

The molecules below were run on phenylquinone induced writhing (assay: phenyl p-quinone writhing assay (analgesia)). Settings: Mus musculus, read-out: INHIBITION OF PHE[…] WRITHING ED50; sc; dose effecting approximately 50% inhibition of writhing.
Assay type: in vivo, mice
Description: Some of the compounds of the present invention are also useful as analgetics due to their ability to alleviate pain in mammals. […] Exptl. Biol. Med., 95:729 (1957). Thus, for instance, the subcutaneous dose effecting an approximately 50% inhibition of writhing (ED50) in mice produced in this assay is as shown in Table 2.
Molecule `CC(C)=CCN1CCC2(C)c3cc(O)ccc3CC1C2C` (stereo not shown) [Pentazocine, reference compound] has an ED50 of 1.3 mg/kg.
For `CCC(=O)O[C@](Cc1ccccc1)(c1ccccc1)[C@H](C)CN(C)C` [Propoxyphene, reference compound], the ED50 was 3.9 mg/kg.

Same assay, conditions: Mus musculus; sc; dose effecting approximately 50% inhibition of writhing
`COc1cc(C(C)=O)ccc1OCCCN1CCC(c2noc3ccccc23)CC1` [1-[4-[3-[4-(1,2-benzisoxazol-3-yl)-1-piperidinyl]propoxy]-3-methoxyphenyl]ethanone] showed an ED50 of 0.17 mg/kg.
`COc1cc(C(C)=O)ccc1OCCCN1CCN(c2n[nH]c3ccccc23)CC1` [1-[4-[3-[4-(1H-indazol-3-yl)-1-piperazinyl]propoxy]-3-methoxyphenyl]ethanone] was tested, and the ED50 was 0.06 mg/kg.
In the case of `COc1cc(C(C)=O)ccc1OCCCN1CCC(c2noc3cc(F)ccc23)CC1` [1-[4-[3-[4-(6-fluoro-1,2-benzisoxazol-3-yl)-1-piperidinyl]propoxy]-3-methoxyphenyl]ethanone], the ED50 is reported as 0.03 mg/kg.
